Measurements reported in ChEMBL document CHEMBL4507320, “Data for DCP probe NVS-MALT1” (2021).

Assays:
Conditions in all cases: Compound concentration 1000.0 nM
[1] = tested on: Tyrosine-protein kinase ABL1 (Homo sapiens), P00519 [E255K]
[2] = tested on: Tyrosine-protein kinase ABL1 (Homo sapiens), P00519 [H396P]
[3] = biological target: Activin receptor type-1-like (Homo sapiens) (UniProt P37023)
[4] = biological target: Atypical kinase COQ8B, mitochondrial (Homo sapiens) (UniProt Q96D53)
[5] = biological target: Cyclin-dependent kinase 13 (Homo sapiens) (UniProt Q14004)
[6] = biological target: Cyclin-dependent kinase-like 3 (Homo sapiens) (UniProt Q8IVW4)
[7] = biological target: Cyclin-dependent kinase-like 5 (Homo sapiens) (UniProt O76039)
[8] = biological target: Casein kinase II subunit alpha' (Homo sapiens) (UniProt P19784)
[9] = biological target: Megakaryocyte-associated tyrosine-protein kinase (Homo sapiens) (UniProt P42679)
[10] = tested on: Epidermal growth factor receptor (Homo sapiens), P00533 [L858R,T790M]
[11] = tested on: Epidermal growth factor receptor (Homo sapiens), P00533 [L861Q]
[12] = biological target: Ephrin type-A receptor 2 (Homo sapiens) (UniProt P29317)
[13] = biological target: Ephrin type-A receptor 7 (Homo sapiens) (UniProt Q15375)
[14] = tested on: Fibroblast growth factor receptor 3 (Homo sapiens), P22607 [G697C]
[15] = tested on: Receptor-type tyrosine-protein kinase FLT3 (Homo sapiens), P36888 [UNDEFINED MUTATION]
[16] = tested on: Receptor-type tyrosine-protein kinase FLT3 (Homo sapiens), P36888 [UNDEFINED MUTATION]; remark: listed apart in the source
[17] = biological target: Rhodopsin kinase GRK1 (Homo sapiens) (UniProt Q15835)
[18] = biological target: Inhibitor of nuclear factor kappa-B kinase subunit alpha (Homo sapiens) (UniProt O15111)
[19] = biological target: Interleukin-1 receptor-associated kinase 1 (Homo sapiens) (UniProt P51617)
[20] = tested on: Mast/stem cell growth factor receptor Kit (Homo sapiens), P10721 [L576P]
[21] = biological target: Serine/threonine-protein kinase 10 (Homo sapiens) (UniProt O94804)
[22] = tested on: Leucine-rich repeat serine/threonine-protein kinase 2 (Homo sapiens), Q5S007 [G2019S]
[23] = biological target: Mitogen-activated protein kinase kinase kinase 15 (Homo sapiens) (UniProt Q6ZN16)
[24] = biological target: Dual specificity mitogen-activated protein kinase kinase 6 (Homo sapiens) (UniProt P52564)
[25] = biological target: Maternal embryonic leucine zipper kinase (Homo sapiens) (UniProt Q14680)
[26] = biological target: Hepatocyte growth factor receptor (Homo sapiens) (UniProt P08581)
[27] = biological target: Serine/threonine-protein kinase Nek7 (Homo sapiens) (UniProt Q8TDX7)
[28] = biological target: Mitogen-activated protein kinase kinase kinase 14 (Homo sapiens) (UniProt Q99558)
[29] = biological target: Platelet-derived growth factor receptor alpha (Homo sapiens) (UniProt P16234)
[30] = biological target: Serine/threonine-protein kinase pim-3 (Homo sapiens) (UniProt Q86V86)
[31] = biological target: cAMP-dependent protein kinase catalytic subunit beta (Homo sapiens) (UniProt P22694)
[32] = biological target: Serine/threonine-protein kinase PLK3 (Homo sapiens) (UniProt Q9H4B4)
[33] = biological target: Serine/threonine-protein kinase PLK4 (Homo sapiens) (UniProt O00444)
[34] = biological target: Serine/threonine-protein kinase D2 (Homo sapiens) (UniProt Q9BZL6)
[35] = biological target: Interferon-induced, double-stranded RNA-activated protein kinase (Homo sapiens) (UniProt P19525)
[36] = biological target: Ribosomal protein S6 kinase alpha-5 (Homo sapiens) (UniProt O75582)
[37] = biological target: Ribosomal protein S6 kinase alpha-1 (Homo sapiens) (UniProt Q15418)
[38] = biological target: Uncharacterized serine/threonine-protein kinase SBK3 (Homo sapiens) (UniProt P0C264)
[39] = biological target: Serine/threonine-protein kinase SIK1 (Homo sapiens) (UniProt P57059)
[40] = biological target: Serine/threonine-protein kinase 16 (Homo sapiens) (UniProt O75716)
[41] = biological target: Serine/threonine-protein kinase 35 (Homo sapiens) (UniProt Q8TDR2)
[42] = biological target: TGF-beta receptor type-1 (Homo sapiens) (UniProt P36897)
[43] = biological target: Non-receptor tyrosine-protein kinase TNK1 (Homo sapiens) (UniProt Q13470)
[44] = biological target: Testis-specific serine/threonine-protein kinase 1 (Homo sapiens) (UniProt Q9BXA7)
[45] = biological target: Serine/threonine-protein kinase 32A (Homo sapiens) (UniProt Q8WU08)

Measured: residual activity

Sequence of Receptor-type tyrosine-protein kinase FLT3 (Homo sapiens), P36888 [UNDEFINED MUTATION] (P36888 whole entry, looked up, change not shown): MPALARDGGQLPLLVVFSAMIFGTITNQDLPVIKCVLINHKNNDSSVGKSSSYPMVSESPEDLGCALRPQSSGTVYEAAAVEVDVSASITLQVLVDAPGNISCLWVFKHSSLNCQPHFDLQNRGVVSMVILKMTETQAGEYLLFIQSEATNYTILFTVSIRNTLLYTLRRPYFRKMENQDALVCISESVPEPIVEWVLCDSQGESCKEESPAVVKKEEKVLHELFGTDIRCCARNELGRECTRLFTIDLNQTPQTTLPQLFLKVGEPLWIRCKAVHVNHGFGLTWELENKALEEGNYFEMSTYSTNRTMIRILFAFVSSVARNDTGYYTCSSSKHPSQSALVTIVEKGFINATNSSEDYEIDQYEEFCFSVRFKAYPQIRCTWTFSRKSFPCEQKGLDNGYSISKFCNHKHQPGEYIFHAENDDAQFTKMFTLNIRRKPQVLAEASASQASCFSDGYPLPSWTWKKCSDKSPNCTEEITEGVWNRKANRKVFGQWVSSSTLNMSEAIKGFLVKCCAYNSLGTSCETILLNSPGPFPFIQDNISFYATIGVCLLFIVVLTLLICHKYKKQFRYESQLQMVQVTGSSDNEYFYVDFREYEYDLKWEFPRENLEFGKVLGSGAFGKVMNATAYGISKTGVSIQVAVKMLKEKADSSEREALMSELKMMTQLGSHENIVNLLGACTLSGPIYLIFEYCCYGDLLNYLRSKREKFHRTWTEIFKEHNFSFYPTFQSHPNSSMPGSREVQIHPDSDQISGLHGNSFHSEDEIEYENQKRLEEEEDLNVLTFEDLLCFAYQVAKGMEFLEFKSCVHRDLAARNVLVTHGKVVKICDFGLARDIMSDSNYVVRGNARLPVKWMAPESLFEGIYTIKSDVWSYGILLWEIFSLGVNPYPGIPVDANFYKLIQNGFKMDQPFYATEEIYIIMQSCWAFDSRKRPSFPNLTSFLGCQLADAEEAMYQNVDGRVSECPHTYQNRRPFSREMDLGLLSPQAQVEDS
Sequence of TGF-beta receptor type-1 (Homo sapiens) (P36897 whole entry): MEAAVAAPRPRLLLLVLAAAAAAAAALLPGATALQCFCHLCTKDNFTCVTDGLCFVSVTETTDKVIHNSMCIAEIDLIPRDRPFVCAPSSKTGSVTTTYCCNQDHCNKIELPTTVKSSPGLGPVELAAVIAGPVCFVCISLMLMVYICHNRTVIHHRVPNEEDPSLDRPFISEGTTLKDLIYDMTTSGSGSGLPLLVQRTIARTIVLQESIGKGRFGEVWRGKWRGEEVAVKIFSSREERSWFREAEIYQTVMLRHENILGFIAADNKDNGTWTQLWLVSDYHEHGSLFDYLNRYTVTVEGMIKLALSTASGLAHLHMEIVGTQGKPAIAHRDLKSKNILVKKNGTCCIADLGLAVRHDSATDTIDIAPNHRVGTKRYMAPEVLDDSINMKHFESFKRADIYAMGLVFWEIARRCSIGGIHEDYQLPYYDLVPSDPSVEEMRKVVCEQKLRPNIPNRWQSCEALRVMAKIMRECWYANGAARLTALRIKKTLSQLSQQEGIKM
Sequence of Ribosomal protein S6 kinase alpha-1 (Homo sapiens) (Q15418 whole entry): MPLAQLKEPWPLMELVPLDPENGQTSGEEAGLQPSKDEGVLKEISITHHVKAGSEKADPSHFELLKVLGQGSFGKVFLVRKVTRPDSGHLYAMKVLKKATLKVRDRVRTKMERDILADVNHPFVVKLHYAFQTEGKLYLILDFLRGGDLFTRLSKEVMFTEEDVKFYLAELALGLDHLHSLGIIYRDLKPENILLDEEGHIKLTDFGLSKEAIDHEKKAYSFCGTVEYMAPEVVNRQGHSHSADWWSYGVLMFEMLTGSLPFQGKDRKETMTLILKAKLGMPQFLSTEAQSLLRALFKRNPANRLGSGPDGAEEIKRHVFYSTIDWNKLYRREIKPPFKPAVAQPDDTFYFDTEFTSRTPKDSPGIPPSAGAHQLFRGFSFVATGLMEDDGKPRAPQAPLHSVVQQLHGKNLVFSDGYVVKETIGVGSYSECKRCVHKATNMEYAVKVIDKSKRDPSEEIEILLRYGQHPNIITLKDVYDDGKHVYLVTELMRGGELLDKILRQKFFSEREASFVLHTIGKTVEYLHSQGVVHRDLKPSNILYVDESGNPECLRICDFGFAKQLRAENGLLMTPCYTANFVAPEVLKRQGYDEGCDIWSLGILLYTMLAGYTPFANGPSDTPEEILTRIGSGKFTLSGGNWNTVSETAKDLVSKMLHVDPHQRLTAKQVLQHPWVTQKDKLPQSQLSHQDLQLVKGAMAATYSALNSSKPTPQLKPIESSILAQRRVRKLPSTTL
Sequence of Uncharacterized serine/threonine-protein kinase SBK3 (Homo sapiens) (P0C264 whole entry): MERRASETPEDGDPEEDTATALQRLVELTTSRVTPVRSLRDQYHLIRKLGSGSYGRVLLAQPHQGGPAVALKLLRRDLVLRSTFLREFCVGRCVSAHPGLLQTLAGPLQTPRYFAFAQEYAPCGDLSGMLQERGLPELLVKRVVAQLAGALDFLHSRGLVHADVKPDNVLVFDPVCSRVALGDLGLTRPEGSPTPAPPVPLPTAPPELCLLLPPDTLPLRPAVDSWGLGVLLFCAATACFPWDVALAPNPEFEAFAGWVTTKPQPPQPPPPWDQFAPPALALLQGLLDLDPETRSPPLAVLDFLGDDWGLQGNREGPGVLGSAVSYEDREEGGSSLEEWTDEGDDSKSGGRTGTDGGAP
Sequence of Serine/threonine-protein kinase 10 (Homo sapiens) (O94804 whole entry, looked up): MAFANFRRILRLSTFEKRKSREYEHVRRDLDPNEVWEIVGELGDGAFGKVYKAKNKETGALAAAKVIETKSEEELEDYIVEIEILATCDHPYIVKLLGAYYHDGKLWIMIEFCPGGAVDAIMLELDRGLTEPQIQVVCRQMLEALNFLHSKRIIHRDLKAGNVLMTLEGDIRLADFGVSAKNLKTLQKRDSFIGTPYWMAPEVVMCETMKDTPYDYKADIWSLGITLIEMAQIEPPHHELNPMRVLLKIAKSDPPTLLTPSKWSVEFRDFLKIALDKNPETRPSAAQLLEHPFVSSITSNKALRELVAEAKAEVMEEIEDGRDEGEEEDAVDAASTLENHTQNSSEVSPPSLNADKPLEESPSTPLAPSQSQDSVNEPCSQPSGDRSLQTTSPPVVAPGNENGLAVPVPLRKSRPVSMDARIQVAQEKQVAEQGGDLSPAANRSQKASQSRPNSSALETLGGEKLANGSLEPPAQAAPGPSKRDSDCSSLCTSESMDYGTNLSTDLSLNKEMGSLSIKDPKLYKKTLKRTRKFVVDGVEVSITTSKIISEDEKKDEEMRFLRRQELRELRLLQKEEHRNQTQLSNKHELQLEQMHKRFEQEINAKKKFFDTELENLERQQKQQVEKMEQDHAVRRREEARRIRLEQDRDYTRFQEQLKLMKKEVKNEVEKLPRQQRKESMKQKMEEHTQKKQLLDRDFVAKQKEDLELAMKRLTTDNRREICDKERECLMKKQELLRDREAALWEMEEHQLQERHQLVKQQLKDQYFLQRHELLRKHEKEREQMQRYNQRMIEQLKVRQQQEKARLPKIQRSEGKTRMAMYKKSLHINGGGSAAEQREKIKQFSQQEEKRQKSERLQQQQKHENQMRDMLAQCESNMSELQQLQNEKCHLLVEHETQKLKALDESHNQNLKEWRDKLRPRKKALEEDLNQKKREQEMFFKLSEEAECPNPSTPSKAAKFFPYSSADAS
Sequence of Fibroblast growth factor receptor 3 (Homo sapiens), P22607 [G697C] (P22607 whole entry G697C): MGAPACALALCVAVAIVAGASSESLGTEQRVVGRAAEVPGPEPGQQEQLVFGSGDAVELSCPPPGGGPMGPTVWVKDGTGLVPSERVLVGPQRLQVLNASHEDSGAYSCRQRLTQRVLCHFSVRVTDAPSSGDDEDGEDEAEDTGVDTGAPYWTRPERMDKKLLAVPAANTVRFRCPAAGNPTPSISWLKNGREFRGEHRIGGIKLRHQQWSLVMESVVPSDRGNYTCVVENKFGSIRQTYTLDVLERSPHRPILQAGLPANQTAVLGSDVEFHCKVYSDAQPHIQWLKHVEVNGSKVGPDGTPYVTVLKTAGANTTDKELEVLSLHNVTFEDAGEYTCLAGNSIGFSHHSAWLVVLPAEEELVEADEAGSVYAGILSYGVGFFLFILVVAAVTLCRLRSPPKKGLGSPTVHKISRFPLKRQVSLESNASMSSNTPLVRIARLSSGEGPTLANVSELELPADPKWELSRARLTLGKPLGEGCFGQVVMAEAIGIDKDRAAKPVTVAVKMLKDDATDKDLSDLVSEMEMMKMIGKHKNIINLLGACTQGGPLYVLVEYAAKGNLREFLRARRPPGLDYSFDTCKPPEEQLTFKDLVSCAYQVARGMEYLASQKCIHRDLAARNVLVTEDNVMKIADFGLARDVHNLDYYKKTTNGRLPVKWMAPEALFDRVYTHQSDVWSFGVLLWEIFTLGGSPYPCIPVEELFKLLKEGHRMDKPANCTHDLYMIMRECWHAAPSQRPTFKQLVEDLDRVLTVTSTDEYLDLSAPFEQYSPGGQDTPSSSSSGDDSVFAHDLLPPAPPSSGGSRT
Sequence of Serine/threonine-protein kinase Nek7 (Homo sapiens) (Q8TDX7 whole entry, looked up): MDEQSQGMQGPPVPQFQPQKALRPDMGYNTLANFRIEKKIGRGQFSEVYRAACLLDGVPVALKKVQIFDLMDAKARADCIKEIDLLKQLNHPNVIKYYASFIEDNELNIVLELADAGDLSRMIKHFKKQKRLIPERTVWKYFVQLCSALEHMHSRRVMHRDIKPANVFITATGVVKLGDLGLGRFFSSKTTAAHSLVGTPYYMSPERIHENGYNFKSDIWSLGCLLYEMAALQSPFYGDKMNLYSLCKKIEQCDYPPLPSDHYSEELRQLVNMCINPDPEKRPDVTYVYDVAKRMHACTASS

CO[C@@H](C)c1c(Nc2ccc([C@H](N(C)C(=O)C3CCS(=O)(=O)CC3)C(F)(F)F)cc2)cnc2cc(Cl)nn12 [NVS-MALT1]
inactive: [1] 76% | [2] 95% | [3] 100% | [4] 77% | [5] 100% | [6] 73% | [7] 95% | [8] 100% | [9] 99% | [10] 80% | [11] 100% | [12] 100% | [13] 84% | [14] 86% | [15] 71% | [16] 90% | [17] 82% | [18] 100% | [19] 93% | [20] 98% | [21] 100% | [22] 100% | [23] 100% | [24] 91% | [25] 59% | [26] 100% | [27] 75% | [28] 94% | [29] 100% | [30] 86% | [31] 81% | [32] 86% | [33] 100% | [34] 83% | [35] 96% | [36] 88% | [37] 91% | [38] 84% | [39] 87% | [40] 75% | [41] 80% | [42] 94% | [43] 100% | [44] 100% | [45] 100%

CO[C@@H](C)c1c(Nc2ccc([C@@H](N(C)C(=O)C3CCS(=O)(=O)CC3)C(F)(F)F)cc2)cnc2cc(Cl)nn12 [NVS-MALT1-C]
inactive: [1] 75% | [2] 96% | [3] 100% | [4] 96% | [5] 100% | [6] 73% | [7] 89% | [8] 100% | [9] 98% | [10] 72% | [11] 100% | [12] 83% | [13] 87% | [14] 84% | [15] 66% | [16] 87% | [17] 86% | [18] 100% | [19] 82% | [20] 100% | [21] 98% | [22] 100% | [23] 100% | [24] 92% | [25] 52% | [26] 85% | [27] 91% | [28] 90% | [29] 100% | [30] 97% | [31] 89% | [32] 84% | [33] 100% | [34] 86% | [35] 88% | [36] 70% | [37] 99% | [38] 81% | [39] 85% | [40] 100% | [41] 90% | [42] 95% | [43] 87% | [44] 100% | [45] 100%
